From paper PMC3904085 (Frontiers in Neuroscience, 2014)
Like-named read-outs stand apart in the source and are kept apart here.

Key:
human OX2 receptors [1] = biological target: T1, human OX2 receptors (Homo sapiens, UniProt O43614); test: biochemical
T1 sequence (O43614 1-444): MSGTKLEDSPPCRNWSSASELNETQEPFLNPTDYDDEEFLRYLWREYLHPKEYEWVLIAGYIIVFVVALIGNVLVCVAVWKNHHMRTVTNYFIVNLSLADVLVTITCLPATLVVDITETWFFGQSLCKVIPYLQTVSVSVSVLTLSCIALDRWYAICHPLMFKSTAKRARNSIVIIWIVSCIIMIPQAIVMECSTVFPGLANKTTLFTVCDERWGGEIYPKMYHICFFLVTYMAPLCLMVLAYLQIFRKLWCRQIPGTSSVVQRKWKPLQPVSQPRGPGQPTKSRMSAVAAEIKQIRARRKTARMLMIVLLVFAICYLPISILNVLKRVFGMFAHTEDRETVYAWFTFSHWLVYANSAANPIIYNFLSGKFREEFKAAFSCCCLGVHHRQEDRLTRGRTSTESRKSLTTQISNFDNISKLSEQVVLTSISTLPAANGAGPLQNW
Experimental: Briefly, the membranes were isolated by homogenizing cell pellet in 30 ml (w/v) 50 mM Tris buffer (pH 7.4) containing Roche Complete EDTA free protease tablets. […] All binding studies were conducted at a final volume of 200 μl. […] Then 300 μl of this solution was placed in column B on a Nunc polypropylene 96-well plate (Thermo Fisher Scientific, Inc., Rochester, NY). Serial dilutions were then made using a Biomek 2000 (Beckman Coulter, Inc., Fullerton, CA) from a starting concentration of 40 μM. […] All binding was terminated by rapid filtration using a TOMTEC 96-well cell harvester (Hamden, CT) through GF/A filters that had been presoaked with 0.3% polyethyleneimine. The filters were washed with 5.0 ml ice-cold 50 mM Tris buffer (pH 7.4) and air-dried overnight. […] Protein concentrations were measured using Coomassie Protein Plus Assay Reagent (Pierce, Rockford, IL) and serum albumin standards.

Sprague–Dawley rats = test: DRL 72-s schedule of reinforcement in rats; format: in vivo, rat; details: for Lever Presses Mean / Reinforcers Mean: HSD rats DRL-72-s, raw data
From the text: Each chamber was enclosed in a melamine sound-attenuating cubicle. A white noise generator provided masking noise. The interior of each chamber consisted of three levers mounted on one wall with a house light mounted on the opposite wall. The house light was turned on at initiation of each test session and was turned off at the termination of each session. A water access port was situated next to the lever in the middle of the wall, wherein a reinforced response caused a clicker apparatus to sound paired with a dipper (0.02-ml cup) to be lifted from a water trough to an opening in the floor of the access port for 4 s.
Rats were initially trained under an alternative fixed ratio 1 water reinforcement schedule with a fixed 1-min time schedule for automatic reinforcement. Thus, each response was reinforced, with water also provided every minute in the absence of a response. […] Following acquisition of lever-pressing behavior, rats were trained daily on DRL 18-s sessions for ~2 weeks, following which they were advanced to DRL 72-s sessions. Responding on these sessions became stable after ~8 weeks. Experimental test sessions lasted for 1 h and were conducted 5 days/week during light hours.
(§1) Drugs were administered to the animals once or twice weekly with at least 1 week between subsequent drugs to minimize possible carryover effects. Drug treatments were administered on Tuesdays and Fridays. No treatments were administered on other test days. Wednesdays were control days. “Control” behavior was calculated as the pooled mean lever presses or reinforcers received during Wednesday sessions across all Wednesdays for the duration of each study. Performance was normalized to percent of control by dividing total responses (or reinforcers) for each drug or vehicle treatment by the mean number of responses (reinforcers) in the respective pooled control condition, multiplied by 100.
(§2) The data analyses were conducted on the raw response and reinforcement data. All behavioral data are expressed as the mean ± s.e.m. normalized to the control condition.

C57Bl/6 mice = test: DRL 36-s schedule of reinforcement in wild-type mice; format: in vivo, mouse; details: for Lever Presses Mean / Reinforcers Mean: WT mice DRL-36-s, raw data
From the text: (§3) The levers in these chambers were mounted on one wall with an adjacent food magazine next to the lever in the middle of the wall. A reinforced response caused a clicker apparatus to activate and the pellet feeder to deposit one 45-mg sucrose pellet (BioServ, Frenchtown, NJ) into the food magazine. The house light, which was mounted on the ceiling, was turned on when the session began, remained on throughout the entire session, and was turned off at the end of the session. Each experimental chamber was enclosed in a melamine sound-attenuating cubicle and equipped with a white noise generator to provide masking noise.
(§4) Each mouse was initially trained under a variable time 60-s operant schedule for 5 days, followed by fixed ratio-1 ratio schedule for 5 days. After the mice had acquired lever-pressing behavior, they were trained during daily DRL 6-s sessions for ~1 week, then mice progressed through weekly ascending DRL requirements (12, 18, 24, 30 s) before moving to DRL 36-s sessions. […] Experimental sessions lasted for 45 min and were conducted 5 days/week during light hours.
as §1, §2

[2] = test system: mice lacking OX2 receptors; test: DRL 36-s schedule of reinforcement in OX2 KO mice; format: in vivo, mouse; details: for Lever Presses Mean / Reinforcers Mean: OX2 KO mice DRL-36-s, raw data
From the text: Rats were acclimated to housing conditions for 4 days, followed by sham dosing once daily for 3 days, prior to the experiment. For DRL experiments, male Sprague–Dawley rats weighing between 300 and 350 g at the beginning of the behavioral experiments (Holtzman, Madison, WI) were housed in pairs. For mouse DRL studies, male C57Bl/6 mice (Taconic Farms, Hudson, NY) or mice lacking either OX1 or OX2 receptors, around 8 weeks of age, were obtained from private breeding colonies at Taconic Farms (Hudson, NY). OX1 and OX2 receptor knockout mice were generated using in vitro fertilization of embryos in C57Bl/6 female mice with sperm harvested from male mice obtained from the University of Texas Southwestern Medical Center (Dallas, TX), and backcrossed for at least 10 generations. Mice and rats were housed in separate colony rooms, which were maintained at 22°C and 60% relative humidity. For rat DRL experiments, water was available for a 20-min period following the daily behavioral session. Based on recommendations from the animal care and use committee, the mouse DRL assay was developed using food deprivation rather than water deprivation. […] All experiments were conducted during the light cycle and in compliance with the Guide for the Care and Use of Laboratory Animals under protocols approved by a local animal care and use committee.
as §3, §4, §1, §2

human OX2 receptors [3] = biological target: T1, human OX2 receptors; test: Intracellular calcium mobilization (FLIPR), antagonist mode vs EC70 orexin-A; format: cell-based; design: expressed in transfected cells; details: HEK293 cells, mean ± s.e.m. (n); for Kb: read-out: Functional antagonist activity, Kb hOX2
[4] = dose 100 mg/kg PO, listed as almorexant inactive, 100 mg/kg
[5] = dose 100 mg/kg, listed as almorexant inactive
[6] = C57Bl/6 mice DRL-36-s, significant at 100 mg/kg (Figure 5B legend)

CNC(=O)[C@@H](c1ccccc1)N1CCc2cc(OC)c(OC)cc2[C@@H]1CCc1ccc(C(F)(F)F)cc1 [Almorexant (R)]
Receptor binding affinity, Ki OX2 (human OX2 receptors [1]; HEK293 membranes, [125I]-orexin A, 90 min, mean ± s.e.m. (n)): inactive
Ki (human OX2 receptors [1]; read-out: Receptor binding affinity, Ki OX2, HEK293 membranes, [125I]-orexin A, 90 min, mean ± s.e.m. (n)): > 10000 nM
Lever Presses Mean (Sprague–Dawley rats; [4]): 64.73
Reinforcers Mean (Sprague–Dawley rats; [4]): 15.27
Effect on DRL behavior, in words (Sprague–Dawley rats; rats DRL-72-s, 100 mg/kg): no effect on behavior
Effect on DRL behavior, in words (C57Bl/6 mice; C57Bl/6 mice DRL-36-s, 100 mg/kg): no significant effects on behavior
Lever Presses Mean (C57Bl/6 mice; [5]): 233.00
Reinforcers Mean (C57Bl/6 mice; [5]): 11.00
Lever Presses Mean [2, 5]: 112.88
Reinforcers Mean [2, 5]: 25.13
Reinforcers received, effect in words ([2]; mice lacking OX2 receptors, 100 mg/kg): did not significantly affect
Lever presses emitted ([2]; mice lacking OX2 receptors, DRL-36-s, 100 mg/kg): 65 % of control
Functional antagonist activity, Kb hOX2 (human OX2 receptors [3]): inactive
Kb (human OX2 receptors [3]): > 10000 nM

CNC(=O)[C@@H](c1ccccc1)N1CCc2cc(OC)c(OC)cc2[C@@H]1CCc1ccc(C(F)(F)F)cc1 [Almorexant (S)]
Ki (human OX2 receptors [1]): 6.9 ± 0.18 nM
Lever Presses Mean (Sprague–Dawley rats; dose 30 mg/kg PO): 42.73
Reinforcers Mean (Sprague–Dawley rats; dose 30 mg/kg PO): 13.55
Lever Presses Mean (Sprague–Dawley rats; dose 60 mg/kg PO): 51.91
Reinforcers Mean (Sprague–Dawley rats; dose 60 mg/kg PO): 17.91
Lever Presses Mean (Sprague–Dawley rats; dose 100 mg/kg PO): 45.09
Reinforcers Mean (Sprague–Dawley rats; dose 100 mg/kg PO): 19.55
Reduction in lever presses emitted, in words (Sprague–Dawley rats; rats DRL-72-s, PO, 30–100 mg/kg): did not reach statistical significance
Reinforcers received, effect in words (Sprague–Dawley rats; rats DRL-72-s, PO, significant at 100 mg/kg (Figure 5A legend)): significant increase
Doses with antidepressant-like efficacy in the rat DRL-72 sec model (Sprague–Dawley rats; reduced lever presses with increased reinforcers): 100 mg/kg
Lever presses emitted (C57Bl/6 mice; [6]): 47 % of control
Reinforcers received (C57Bl/6 mice; [6]): > 400 % of control
Lever Presses Mean (C57Bl/6 mice; dose 10 mg/kg): 174.25
Reinforcers Mean (C57Bl/6 mice; dose 10 mg/kg): 14.00
Lever Presses Mean (C57Bl/6 mice; dose 20 mg/kg): 161.13
Reinforcers Mean (C57Bl/6 mice; dose 20 mg/kg): 15.50
Lever Presses Mean (C57Bl/6 mice; dose 40 mg/kg): 172.38
Reinforcers Mean (C57Bl/6 mice; dose 40 mg/kg): 20.25
Lever Presses Mean (C57Bl/6 mice; dose 100 mg/kg): 114.88
Reinforcers Mean (C57Bl/6 mice; dose 100 mg/kg): 27.13
Lever Presses Mean ([2]; dose 20 mg/kg): 162.63
Reinforcers Mean ([2]; dose 20 mg/kg): 28.75
Lever Presses Mean ([2]; dose 40 mg/kg): 179.25
Reinforcers Mean ([2]; dose 40 mg/kg): 20.50
Lever Presses Mean ([2]; dose 100 mg/kg): 158.13
Reinforcers Mean ([2]; dose 100 mg/kg): 24.75
Antidepressant-like effect in DRL, in words ([2]; mice lacking OX2 receptors, up to 100 mg/kg): completely abolished
Kb (human OX2 receptors [3]): 1.73 ± 0.35 nM
